Where two headings read alike, the source gives them in different places.
Key:
A2780 cells = assay: Chemosensitivity assay (MTT) in A2780 cells; format: cell-based; settings: for IC50: 24 h exposure + 48 h recovery, MTT, mean ± SD, read-out: IC50 A2780
Excerpt: (§1) The antiproliferative activity of the ind-py ligand and of complexes 1–4 against ovarian cancer A2780 (cisplatin sensitive) and A2780cisR (cisplatin resistant) cell lines was studied. The IC50 values obtained for all the complexes are shown in Table 2, together with values for cisplatin, which was used as a positive control (untreated cells for 100% viability as negative control). […] One of the major limitations of existing anticancer drugs is their poor selectivity towards cancer cells. Comparing the response of the cancer cell lines to the normal PNT2 cells provides a preliminary indication towards the selectivity of the compounds.
(§2) In vitro chemosensitivity tests were performed against A2780, A2780cisR and PNT2 cells. Cells were routinely maintained as monolayer cultures in RPMI medium supplemented with 10% foetal calf serum, penicillin (100 I.U./mL) and streptomycin (100 μg/mL), sodium pyruvate (1 mM) and L-glutamine (2 mM). For chemosensitivity studies, cells were incubated in 96-well plates at a concentration of 7.5 × 10^3 cells per well and the plates were incubated for 24 h at 37 °C and a 5% CO2 humidified atmosphere prior to drug exposure.
(§3) Complexes were dissolved in DMSO to provide stock solutions, which were further diluted with media to provide a range of final concentrations. Drug-media solutions were added to cells (the final concentration of DMSO was less than 1% (v/v) in all cases) and incubated for 24 h at 37 °C and 5% CO2 humidified atmosphere. The drug-media was removed from the wells and the cells were washed with PBS (100 μL, twice), and 100 μL of complete fresh media were added to each well. The plates were further incubated for 48 h at 37 °C in a 5% CO2 humidified atmosphere to allow for a period of recovery. 3-(4,5-dimethylthiazol-2-yl)-2,5-diphenyltetrazolium bromide (MTT) (20 μL, 2.5 mg/mL) was added to each well and incubated for 2 h at 37 °C and 5% CO2 humidified atmosphere. All solutions were then removed and 100 μL of DMSO was added to each well in order to dissolve the purple formazan crystals. A Thermo Scientific Multiskan EX microplate photometer was used to measure the absorbance in each well at 570 nm. Cell survival was determined as the absorbance of treated cells divided by the absorbance of controls and expressed as a percentage. The IC50 values were determined from plots of % survival against drug concentration. Each experiment was repeated in triplicates of triplicates and a mean value was obtained and stated as IC50 (μM) ± SD. Cisplatin was also used as a positive control.

A2780cisR cells = assay: Chemosensitivity assay (MTT) in A2780cisR cells; format: cell-based; settings: for IC50: 24 h exposure + 48 h recovery, MTT, mean ± SD
Excerpt: as §1, §2, §3

PNT2 cells = assay: Chemosensitivity assay (MTT) in PNT2 cells; format: cell-based; settings: for IC50: 24 h exposure + 48 h recovery, MTT, mean ± SD
Excerpt: as §1, §2, §3

[1] = Stability and aquation in MeOD/D2O by 1H-NMR; format: physicochemical; settings: MeOD/D2O 1:1 v/v, 1.1 mM, 298 K, over 24 h
Experimental: Owing to the limited aqueous solubility of the complexes, all the reactivity experiments were performed using a mixture MeOD/D2O (1:1 v/v) as a solvent. The stability of complexes 1–4 in MeOD/D2O was studied via ^1H-NMR spectroscopy over a period of 24 h. […] The stability of complexes 1–4 in dimethylsulfoxide (DMSO;1.1 mM) was also studied by ^1H-NMR spectroscopy over a period of 24 h (Figure S1). […] The ligand ind-py is also stable in MeOD/D2O over 24 h (Figure S1E).
Aquation of the monodentate ligand (X) is a common behaviour for half-sandwich complexes of the type [(arene/Cp)M(NUN)X] and it is usually considered an activation step, which allows further reactions with the corresponding targets. To study if aquation of complexes 1–4 occurs in MeOD/D2O (1:1 v/v), experiments in the presence of either one molar equivalent of silver nitrate (to force the release of the monodentate Cl^- ligand), or NaCl (to block hydrolysis), were performed.
Complexes 1–4 were dissolved in MeOD (2.2 mM) and diluted to a final concentration of 1.1 mM with either MeOD or D2O. ^1H-NMR spectra were recorded at t ≤ 10 min, 12 h and 24 h. The samples were then reacted with either 1 mol. equiv. of silver nitrate to obtain the fully hydrolysed species or NaCl to block hydrolysis.

Compound | IC50 (A2780 cells) | IC50 (A2780cisR cells) | IC50 (PNT2 cells) | Stability in MeOD/D2O [1] | Cytotoxicity against A2780 (in words) (A2780 cells; Figure S14) | IC50 (A2780 cells; Homo sapiens, A2780) | Cytotoxicity against A2780cisR (in words) (A2780cisR cells; Figure S14) | IC50 (A2780cisR cells; Homo sapiens, A2780cisR) | Cytotoxicity against PNT2 (in words) (PNT2 cells; Figure S14) | IC50 (PNT2 cells; Homo sapiens, PNT2)
N.N.[Cl][Pt][Cl] [Cisplatin, reference compound] | 10.3 ± 0.5 µM | 22.4 ± 0.5 µM | 43 ± 3 µM | – | – | – | – | – | – | –
c1ccc(-c2cc3ccccc3[nH]2)nc1 [Ind-py, 2-(2-pyridinyl)-1H-indole, reference compound] | – | – | – | stable | non-cytotoxic | > 100 µM | non-cytotoxic | > 100 µM | non-cytotoxic | > 100 µM

Reference: PMC7583056, “Synthesis, Characterisation and In Vitro Anticancer Activity of Catalytically Active Indole-Based Half-Sandwich Complexes” (Molecules, 2020)
